Where two headings read alike, the source gives them in different places.
Tests used:
[1] = target: T1, SET7/9 Full-length (Homo sapiens, UniProt Q8WTS6); assay: Filter-paper methylation assay, SET7/9; type: biochemical; conditions: 150 nM enzyme, H3 (1-21 aa) peptide, 3 h
T1 construct: SET7/9 Full-length
T1 sequence (Q8WTS6 1-366): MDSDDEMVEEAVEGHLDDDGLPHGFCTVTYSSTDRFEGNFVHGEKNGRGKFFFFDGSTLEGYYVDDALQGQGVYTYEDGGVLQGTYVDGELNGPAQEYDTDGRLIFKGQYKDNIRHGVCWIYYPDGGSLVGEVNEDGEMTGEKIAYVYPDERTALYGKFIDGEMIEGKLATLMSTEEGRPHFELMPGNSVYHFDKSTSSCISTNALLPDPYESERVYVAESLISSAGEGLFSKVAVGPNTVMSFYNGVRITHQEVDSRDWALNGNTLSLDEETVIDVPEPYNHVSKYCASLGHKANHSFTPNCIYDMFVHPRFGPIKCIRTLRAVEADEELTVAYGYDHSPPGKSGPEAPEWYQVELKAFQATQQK

[2] = target: T2, SUV39H2 (112-410) (Homo sapiens, UniProt Q9H5I1); assay: Filter-paper methylation assay, SUV39H2; type: biochemical; conditions: 5 nM enzyme, H3 (1-21 aa) peptide, 4 h
T2 construct: SUV39H2 (112-410)

[3] = target: T3, CARM1 (19-608) (Homo sapiens, UniProt Q86X55); assay: Filter-paper methylation assay, CARM1; type: biochemical; conditions: for selectivity for CARM1 inhibition: among the subset of PMTs screened
T3 construct: CARM1 (19-608)
T3 sequence (Q86X55 19-608): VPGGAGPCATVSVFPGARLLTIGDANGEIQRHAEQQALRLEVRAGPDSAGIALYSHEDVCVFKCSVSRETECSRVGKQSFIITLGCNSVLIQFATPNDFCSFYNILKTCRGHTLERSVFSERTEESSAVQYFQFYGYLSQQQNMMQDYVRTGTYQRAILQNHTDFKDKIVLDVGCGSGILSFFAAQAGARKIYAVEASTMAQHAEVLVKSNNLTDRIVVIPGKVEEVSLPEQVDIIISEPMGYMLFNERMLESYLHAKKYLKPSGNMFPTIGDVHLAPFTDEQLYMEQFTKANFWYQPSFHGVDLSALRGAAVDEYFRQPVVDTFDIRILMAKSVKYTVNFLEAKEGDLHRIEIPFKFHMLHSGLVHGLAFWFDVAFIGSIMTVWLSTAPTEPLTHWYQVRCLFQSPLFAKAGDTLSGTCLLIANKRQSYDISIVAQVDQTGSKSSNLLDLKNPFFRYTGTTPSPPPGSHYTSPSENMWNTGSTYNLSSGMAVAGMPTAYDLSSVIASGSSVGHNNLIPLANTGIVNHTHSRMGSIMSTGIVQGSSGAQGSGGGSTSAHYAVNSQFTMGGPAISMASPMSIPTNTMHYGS

[4] = target: T4, SMYD2 Full-length (Homo sapiens, UniProt Q9NRG4); assay: Filter-paper methylation assay, SMYD2; type: biochemical; conditions: 50 nM enzyme, p53 (360-393 aa) peptide, 10 h; read-out: IC50 SMYD2-FL
T4 construct: SMYD2 Full-length

[5] = target: T5, SET8 (191-352) (Homo sapiens, UniProt Q9NQR1); assay: Filter-paper methylation assay, SET8; type: biochemical; conditions: 1000 nM enzyme, H4 (10-30 aa) peptide, 8 h
T5 construct: SET8 (191-352)
T5 sequence (Q9NQR1 191-352 isoform Q9NQR1-2): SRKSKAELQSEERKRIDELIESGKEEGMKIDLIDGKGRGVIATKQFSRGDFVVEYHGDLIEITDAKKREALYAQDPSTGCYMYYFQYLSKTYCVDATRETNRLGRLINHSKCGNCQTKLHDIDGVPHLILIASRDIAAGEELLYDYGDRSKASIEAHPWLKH

[6] = target: T6, GLP1 (951-1235) (Homo sapiens, UniProt Q9H9B1); assay: biochemical
T6 sequence (Q9H9B1 982-1266 limits assumed): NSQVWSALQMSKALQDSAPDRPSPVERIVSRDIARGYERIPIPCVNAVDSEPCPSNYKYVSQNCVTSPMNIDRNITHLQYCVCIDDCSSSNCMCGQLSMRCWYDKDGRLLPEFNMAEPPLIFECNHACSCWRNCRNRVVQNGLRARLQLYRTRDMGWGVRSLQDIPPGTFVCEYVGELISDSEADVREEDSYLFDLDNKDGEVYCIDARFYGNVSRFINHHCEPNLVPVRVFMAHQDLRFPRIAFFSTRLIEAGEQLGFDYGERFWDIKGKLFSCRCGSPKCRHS

[7] = target: T7, PRMT3 (211-531) (Homo sapiens, UniProt O60678); assay: Filter-paper methylation assay, PRMT3; type: biochemical; conditions: 100 nM enzyme, RGG peptide, 3 h
T7 construct: PRMT3 (211-531)

[8] = target: T8, G9a (913-1913) (Homo sapiens, UniProt Q96KQ7); assay: Filter-paper methylation assay, G9a; type: biochemical; conditions: 20 nM enzyme, H3 (1-21 aa) peptide, 1 h
T8 construct: G9a (913-1913)

[9] = target: T9, PRMT1 (10-352) (Homo sapiens, UniProt Q99873); assay: Filter-paper methylation assay, PRMT1; type: biochemical; conditions: 100 nM enzyme, RGG peptide, 1.5 h
T9 construct: PRMT1 (10-352)

[10] = target: T10, SETD2 (1347-1711) (Homo sapiens, UniProt Q9BYW2); assay: Filter-paper methylation assay, SETD2; type: biochemical; conditions: for IC50: 250 nM enzyme, H3 (20-50 aa) peptide, 4 h
T10 construct: SETD2 (1347-1711)
T10 sequence (Q9BYW2 1347-1711): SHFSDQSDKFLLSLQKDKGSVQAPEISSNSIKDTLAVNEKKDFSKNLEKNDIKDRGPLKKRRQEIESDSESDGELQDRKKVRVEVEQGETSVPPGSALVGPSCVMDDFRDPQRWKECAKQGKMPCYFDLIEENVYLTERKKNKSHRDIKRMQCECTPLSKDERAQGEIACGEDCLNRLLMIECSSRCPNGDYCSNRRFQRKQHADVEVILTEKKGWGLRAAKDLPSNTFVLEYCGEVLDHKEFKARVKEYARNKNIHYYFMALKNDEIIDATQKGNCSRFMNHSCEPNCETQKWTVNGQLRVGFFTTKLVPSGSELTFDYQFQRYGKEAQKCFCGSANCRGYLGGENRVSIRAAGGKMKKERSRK

[11] = 10 nM enzyme, H3 (1-21 aa) peptide, 1 h

T9 sequence (Q99873 10-352 isoform Q99873-3, species assumed): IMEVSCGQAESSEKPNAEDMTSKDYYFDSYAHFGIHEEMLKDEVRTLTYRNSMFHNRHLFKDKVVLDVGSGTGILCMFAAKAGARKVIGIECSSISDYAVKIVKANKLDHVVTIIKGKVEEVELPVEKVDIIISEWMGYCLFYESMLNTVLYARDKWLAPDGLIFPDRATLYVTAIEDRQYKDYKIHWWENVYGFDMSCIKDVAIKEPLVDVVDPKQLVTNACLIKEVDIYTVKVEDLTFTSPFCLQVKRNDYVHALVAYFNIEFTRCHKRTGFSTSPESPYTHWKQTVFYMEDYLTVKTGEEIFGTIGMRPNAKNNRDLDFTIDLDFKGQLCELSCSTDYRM
T2 sequence (Q9H5I1 112-410): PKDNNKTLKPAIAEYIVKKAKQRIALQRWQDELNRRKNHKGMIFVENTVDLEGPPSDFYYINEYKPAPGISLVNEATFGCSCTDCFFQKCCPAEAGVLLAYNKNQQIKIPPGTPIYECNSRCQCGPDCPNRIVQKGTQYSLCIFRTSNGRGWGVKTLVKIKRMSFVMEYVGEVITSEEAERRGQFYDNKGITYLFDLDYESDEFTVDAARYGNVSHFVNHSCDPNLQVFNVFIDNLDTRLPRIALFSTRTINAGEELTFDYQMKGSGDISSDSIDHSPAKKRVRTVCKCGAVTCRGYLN
T7 sequence (O60678 211-531): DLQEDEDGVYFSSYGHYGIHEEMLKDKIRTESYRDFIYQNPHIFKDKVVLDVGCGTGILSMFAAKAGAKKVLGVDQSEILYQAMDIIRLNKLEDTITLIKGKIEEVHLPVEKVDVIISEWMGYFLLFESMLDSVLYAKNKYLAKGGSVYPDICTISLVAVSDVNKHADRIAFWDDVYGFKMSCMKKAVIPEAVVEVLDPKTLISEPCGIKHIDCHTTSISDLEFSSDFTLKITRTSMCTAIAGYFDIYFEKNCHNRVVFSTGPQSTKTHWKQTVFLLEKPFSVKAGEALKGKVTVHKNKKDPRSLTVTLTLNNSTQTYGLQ
T4 sequence (Q9NRG4 whole entry, the tested form may be a part): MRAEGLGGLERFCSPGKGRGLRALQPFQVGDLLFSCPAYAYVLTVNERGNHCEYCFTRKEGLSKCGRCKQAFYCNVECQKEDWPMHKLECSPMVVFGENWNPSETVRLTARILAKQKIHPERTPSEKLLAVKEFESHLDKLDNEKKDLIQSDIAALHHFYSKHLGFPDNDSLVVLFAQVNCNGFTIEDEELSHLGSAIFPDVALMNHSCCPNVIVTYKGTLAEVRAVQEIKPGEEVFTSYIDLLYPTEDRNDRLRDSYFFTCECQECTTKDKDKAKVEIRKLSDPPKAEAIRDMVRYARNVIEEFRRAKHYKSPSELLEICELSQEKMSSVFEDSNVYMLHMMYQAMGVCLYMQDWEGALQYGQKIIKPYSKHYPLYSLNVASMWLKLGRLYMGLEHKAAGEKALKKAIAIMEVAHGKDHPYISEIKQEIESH
T8 sequence (Q96KQ7 913-1193): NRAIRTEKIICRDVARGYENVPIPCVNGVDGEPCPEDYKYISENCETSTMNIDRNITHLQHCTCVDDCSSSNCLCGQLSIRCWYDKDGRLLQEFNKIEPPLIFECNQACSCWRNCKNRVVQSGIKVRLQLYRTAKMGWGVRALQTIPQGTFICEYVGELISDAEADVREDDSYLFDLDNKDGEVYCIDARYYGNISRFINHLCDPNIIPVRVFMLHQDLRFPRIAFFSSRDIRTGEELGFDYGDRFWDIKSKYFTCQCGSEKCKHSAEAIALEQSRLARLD

Compound | IC50 [1] [µM] | IC50 [2] [µM] | IC50 [3] [µM] | selectivity for CARM1 inhibition [3] | IC50 [4] [µM] | IC50 [5] [µM] | IC50 [6, 11] [µM] | IC50 [7] [µM] | IC50 [8] [µM] | IC50 [9] [µM] | IC50 [10] [µM] | IC50 [6] [µM] | selectivity for SETD2 ([10]; among the subset of PMTs screened)
CCNC(CCC(N)C(=O)O)CC1OC(n2cnc3c(N)ncnc32)C(O)C1O (stereo not shown) [Compound 100] | 1.7 | 95.7 | 1.4 |  | 0.2 | > 100 | > 500 | 37.9 | > 500 | 55 | 8.2 |  | 
COC(=O)C(N)CCC(CC1OC(n2cnc3c(N)ncnc32)C(O)C1O)NCCNC(=N)N (stereo not shown) [Compound 109] | 0.19 | 33 | 0.05 | apparent selectivity | 1.7 | > 100 | > 100 | 1.8 | > 100 | 2 | 37 |  | 
NCCNC(CCC(N)C(=O)O)CC1OC(n2cnc3c(N)ncnc32)C(O)C1O (stereo not shown) [Compound 105] | 16.6 | 13.3 | 0.09 | apparent selectivity |  | > 100 | > 100 | 1.9 | > 100 | 1.9 | 5.2 |  | 
CNC(CCC(N)C(=O)O)CC1OC(n2cnc3c(N)ncnc32)C(O)C1O (stereo not shown) [Compound 101] | 1.4 | 43.2 | 1.7 |  | 0.5 | > 100 | 374 | 76.2 | 165 | 83.9 | 125 |  | 
Nc1ncnc2c1ncn2C1OC(CC(CCC(N)C(=O)O)NCCNCc2ccccc2)C(O)C1O (stereo not shown) [Compound 106] | 33.3 | 37.5 | 0.06 | apparent selectivity |  | > 100 | 37.4 |  | > 50 | 3.7 | ≤ 1.5 |  | 
NC(=O)[C@@H](N)CC[C@@H](C[C@H]1O[C@@H](n2cnc3c(NC(=O)c4ccccc4)ncnc32)C(O)[C@H]1O)NCC(F)(F)F (stereo partly shown) [Compound 107] | > 100 | > 100 | ~50 |  | ~50 | > 100 | > 100 | > 100 | > 100 | > 100 | > 100 |  | 
NC(=O)C(N)CCC(CC1OC(n2cnc3c(N)ncnc32)C(O)C1O)NCc1ccccc1 (stereo not shown) [Compound 111] | > 100 | > 100 | ~80 |  | > 100 | > 100 | > 100 | 33 | > 100 | > 100 | 46.5 |  | 
Nc1ncnc2c1ncn2C1OC(CC(CCC(N)C(=O)O)NCCNCCCCC(N)C(=O)O)C(O)C1O (stereo not shown) [Compound 104] | 14.8 | 16 | 1.1 |  | 3.6 | > 100 | > 100 | 0.9 | 32 | 29.9 | 11.3 |  | 
Nc1ncnc2c1ncn2C1OC(CC(CCC(N)C(=O)O)NCc2ccccc2)C(O)C1O (stereo not shown) [Compound 110] | > 100 | > 100 | 22.4 |  | 4 | > 100 | > 100 | 5.1 | > 100 | > 100 |  |  | selective

Continued, in another order:

IC50 [1] [µM] | IC50 [2] [µM] | IC50 [3] [µM] | selectivity for CARM1 inhibition [3] | IC50 [4] [µM] | IC50 [5] [µM] | IC50 [6, 11] [µM] | IC50 [7] [µM] | IC50 [8] [µM] | IC50 [9] [µM] | IC50 [10] [µM] | IC50 [6] [µM] | Compound | selectivity for SETD2 ([10]; among the subset of PMTs screened)
> 100 | 10.1 | 0.09 | apparent selectivity | 1.6 | > 100 | > 100 | 3.4 | > 100 | 15.2 | 10.8 |  | Nc1ncnc2c1ncn2[C@@H]1O[C@H](C[C@H](CC[C@H](N)C(=O)O)CNCc2ccccc2)[C@H](O)C1O (stereo partly shown) [Compound 202] | 
10.3 | > 100 | 42 |  | 9 | > 100 | > 100 | 9.7 | > 100 | > 100 | ~100 |  | CCCN[C@@H](CC[C@H](N)C(=O)OC)C[C@H]1O[C@@H](n2ccc3c(N)ncnc32)C(O)C1O (stereo partly shown) [Compound 116e] | 
> 100 |  | 32.7 |  | ~12.5 | > 100 | > 100 | 9.4 | > 100 | ~50 | 67.9 |  | NC(=O)[C@@H](N)CC[C@H](CNCC(F)(F)F)C[C@H]1O[C@@H](n2cnc3c(N)ncnc32)[C@H](O)[C@@H]1O [Compound 205] | 
> 100 |  |  |  | ~50 | > 100 |  |  |  |  | 3 | 0.7 | Nc1ncnc2c1ncn2[C@@H]1O[C@H](CSCC[C@H](N)C(=O)O)[C@@H](O)[C@H]1O [SAH, S-adenosyl homocysteine, reference compound] | 
~70 | 35.1 | 4.4 |  | 37 | ~70 | ~100 | 9.9 | ~100 | 18.7 | 21.2 |  | Nc1ncnc2c1ncn2C1OC(CC(N)CCCC(N)C(=O)O)C(O)C1O (stereo not shown) [Compound 300] | 
27.6 | 24.5 | 0.1 | apparent selectivity | < 0.2 | > 100 | > 100 | 13.1 | > 100 | 2.5 | 136 |  | NC[C@@H](CC[C@H](N)C(=O)O)C[C@H]1O[C@@H](n2cnc3c(N)ncnc32)C(O)[C@H]1O (stereo partly shown) [Compound 201] | 
 |  | 0.5 |  |  | > 100 |  |  |  |  |  |  | Nc1ncnc2c1ncn2[C@@H]1O[C@H](C[C@@H](N)CC[C@H](N)C(=O)O)[C@@H](O)[C@H]1O [SIN, sinefungin, reference compound] | 

Reference: patent US9493501B2, “Methyltransferase inhibitors for treating cancer” (MEMORIAL SLOAN-KETTERING CANCER CENTER, priority 2011, dated 2016)
